In assay [1] the test system is MMP-2, MMP-9, MMP-13. Kind of assay: MMP expression in PA treated HTM cells (Examples 17, 18). It counts as cell-based.
Assay [2] relates to Mmp-2, Mmp-9, Mmp-13. As to the kind of experiment: Mmp expression in Tg-MYOCY437H angle ring tissue (Example 19). It counts as in vivo, mouse. The note with it: 5 days, vs BSA treated eyes. How it is done:
Eyes were flash frozen in liquid nitrogen after outflow facility determination and subsequently dissected on ice to obtain the angle ring tissues containing the TM, as previously described (Kumar, Shah et al. 2013). Dissected TM tissues were immersed in RNAlater solution (Invitrogen, Waltham, Mass., USA) and then snap-frozen and stored at −80° C. until RNA extraction. Tissue collected was pooled (four eyes) and homogenized in TRIzol reagent for RNA isolation, per manufacturer's instructions (Life Technologies, Carlsbad, Calif., USA). RNA concentration was determined with a Nanodrop ND-1000 Spectrophotometer (Thermo Scientific, Wilmington, Del., USA). cDNA was synthesized by using High-Capacity cDNA Reverse Transcription Kit (Applied Biosystems, Waltham, Mass., USA) according to manufacturer's protocol. Quantitative real-time PCR (qRT-PCR) was performed by using Green-2-Go qPCR Mastermix-ROX (Bio Basic, Amherst, N.Y., USA) on a QuantStudio 6 Flex thermal cycler (Applied Biosystems, Carlsbad, Calif., USA). mRNA expression of Plat, Plau, Pai-1, Mmp-2, Mmp-9, and Mmp-13 in angle ring tissues was determined. Primers were designed by using Primer-BLAST (https://www.ncbi.nlm.nih.gov/tools/primer-blast/index.cgi?LINK_LOC=BlastHome; in the public domain); primer sequences are listed in Table 2. Primer specificity was confirmed by agarose gel electrophoresis and multiple-sized amplification products were absent on inspection of melting curves. Target mRNA expression values were normalized to the expression levels of Rps11 (ribosomal protein S11). The relative fold change was calculated by using the ΔΔCt method (Hu, Wang et al. 2015). Outliers identified via the Thompson Tau test were removed from analysis.

A further assay has as its system C57BL/6J mice. As to the kind of experiment: Outflow facility in TA and adenovirus treated C57BL/6J mouse eyes (Example 12). It counts as in vivo. The note with it: TA exposed eyes vs naïve C57BL/6J. How it is done:
Steroid, adenoviral and protein injections. Intracameral adenovirus and intravitreal protein injections were performed using a 10 μl Hamilton syringe with 36-gauge stainless steel needles (WPI Inc, Sarasota, Fla., USA) while subconjunctival injections were performed using a 100 μl Hamilton Syringe with 26-gauge needles (Precision Glide, Becton Dickinson & CO, Franklin Lakes, N.J., USA). All injections were performed under isoflurane inhalation anesthesia and topical anesthesia with 0.5% proparacaine. C57BL/6J mice undergoing adenovirus treatment received bilateral injections with 20 μl of triamcinolone acetonide (TA) suspension (40 mg/ml, Kenalog-40; Bristol-Myers Squibb, NY, USA) subconjunctivally immediately prior to the intracameral adenovirus injection. Animals were then divided into three groups (FIG. 10a): […]
Outflow facility determination: Mouse eyes were enucleated immediately after euthanasia. Outflow facility was determined using a constant pressure method, as previously described. […] Flow was constantly measured via a microfluidic flow sensor (0.07-1.5 uL/min, MFS1; Elveflow, Paris, France). […] Any eyes that developed visible leaks during outflow facility determination, or that had pressure-flow correlations with R^2<0.9, were excluded from analysis but were used for RNA quantification.

Another assay deals with C57/1B6 mice. Kind of assay: Outflow facility in TA-treated mice injected intracamerally with AdPLAT (Example 1). Type of assay: in vivo. How it is done: Methods: Adenoviral vectors carrying cDNA of the sheep PLAT gene and a fluorescent reporter gene (mCherry) (AdPLAT) or with no transgene (AdNull) were created. Transgene expression was driven by the CMV promoter. 3 groups of C57/1B6 mice received either: (1) 20 μl of triamcinolone acetonide (TA) suspension (40 mg/ml) subconjunctivally bilaterally followed immediately by unilateral intracameral injection with 2 μl AdPLAT (3-4×10^12 VG/ml); (2) 20 μl TA subconjunctivally bilaterally followed one week later by unilateral intracameral injection with 2 μl AdPLAT; or (3) 20 μl TA subconjunctivally bilaterally followed immediately by bilateral injection with 2 μl adenovirus AdNull. IOP was measured preterminally. Outflow facility was determined using simultaneous pressure and flow measurements (see FIGS. 2A-2C). After outflow facility measurement, all AdPLAT injected eyes were dissected and viewed under a fluorescent microscope to inspect for mCherry expression in the trabecular meshwork (TM).

Assay [3] relates to sheep of the Coriedale breed. As to the kind of experiment: Steroid-induced IOP elevation in sheep, tPA injected into the anterior chamber (Example 9). Type of assay: in vivo. Particulars: amount of arginine associated with 0.01 ug tPA, injected alone. How it is done: Methods. Lyophilized tPA, obtained as Acetilyse® from Boehringer Ingelheim S. A. (Buenos Aires) containing arginine, was used. Five sheep of the Coriedale breed were selected. Initially all eyes received instillation of 1% prednisolone 3 times/day for 10 days to elevate their IOP from 10 mm Hg to about 23 mm Hg. Then, 0.0001 μg was injected into one of the eyes and its effect was followed for up to 55:00 hrs while the instillation of prednisolone continued in both eyes. The same protocol was implemented for the 0.001 and 0.01 μg amounts (after extended washout) in the contra lateral eyes. Arginine, which is associated with 0.01 ug tPA, was injected alone and had no effect.

For assay [4], the system named is sheep of the Corriedale breed. Kind of assay: Steroid-induced IOP elevation in sheep, intravitreal tPA (Examples 3, 4). It counts as in vivo. Here is the method: Protocol 1. 8 sheep of the Corriedale breed were treated with prednisolone acetate three times a day in both eyes, leading to elevated IOP. After one week, the animals received intravitreal injections of human recombinant tPA (100, 200, 500 and 1000 μg, two animals each) dissolved in balanced salt solution (BSS) in one eye. IOP was monitored for 19 more days while the animals continued to receive treatment with prednisolone. Periodic slit lamp examination was also performed.
Protocol 2. In a second set of experiments, arginine was added to the BSS vehicle administered to the left eye to control for the relatively high concentration of the amino acid in the commercially available tPA lyophilisate. In these experiments all right eyes received 0.1 mg tPA, which concomitantly delivered 4.23 mg of arginine into the vitreous, and the left eye received this same amount of arginine, absent the tPA. On Day 1, prednisolone treatments were also begun simultaneously on both eyes.
Methods. In this experiment, the inventor sought to detect the effects of tPA treatment on prevention of steroid-induced IOP elevation. In 4 sheep tPA was injected in one eye (100 μg) and they were started on prednisolone acetate three times a day in both eyes. Animals were monitored for 11 days on continuous treatment.

The test system of another assay is PLAT. As to the kind of experiment: PLAT mRNA in HTM cells after prednisolone (Example 8). Type of assay: cell-based. Particulars: HTM cells from two donors; as early as 1 hour after prednisolone. The text has this: FIG. 8. Relative fold difference of PLAT mRNA from 18S mRNA amounts in HTM cells treated with prednisolone acetate (PA treated) or vehicle (Control) for […].

The subject of another assay is HTM cells. As to the kind of experiment: Simulated outflow facility of HTM cells in artificial conventional outflow system (ACOS) (Examples 17, 18). It counts as cell-based. The note with it: PA treatment. How it is done: HTM cells were treated with 300 nM prednisolone acetate (PA) for 72 h to reduce outflow facility. They were then treated with either tissue plasminogen activator (tPA), non-enzymatically active tPA (NE-tPA) or bovine serum albumin (BSA) and perfused in artificial conventional outflow system (ACOS). Simulated outflow facilities (mean±standard deviation) (μl/min/mmHg/mm^2) was 2.4±0.6×10-1 for PA, 3±1.2×10-1 for PA+BSA, 7±1.2×10-1 for PA+tPA and 5.4±0.9×10-1 for PA+NE-tPA (p<0.0001, ANOVA).
HTM cells were treated with PA+NE-tPA and inhibitors of either LRP1 (RAP) or NMDA receptor (MK-801) and were perfused in ACOS. Simulated outflow facility (meant standard deviation μl/min/mmHg/mm^2) was 5.5±0.7×10-1 for PA+NE-tPA, 2.9±1.3×10-1 for PA+NE-tPA+MK-801, 2.7±1.2×10-1 for PA+NE-tPA+RAP and 3.3±1.3×10-1 for PA+NE-tPA+MK-801+RAP.

[5] abbreviates: added to PA+NE-tPA, vs PA+NE-tPA treated cells.

`C[C@]12N[C@H](Cc3ccccc31)c1ccccc12` [MK-801, reference compound]: in the assay on MMP-2, MMP-9, MMP-13 [1] (setting [5]), the MMP-2 expression entry is “significantly lower” and the MMP-9 expression result is listed as “significantly lower”.
On to `O=C([O-])CCCc1ccccc1.[Na+]` [PBA, sodium phenylbutarate, reference compound], for which, in the assay on Mmp-2, Mmp-9, Mmp-13 [2], the Mmp-2 expression result was “no significant difference”, the Mmp-9 expression entry is given as “higher” and the Mmp-13 expression entry was “did not show any difference”.
For the molecule `CC1(C)O[C@@H]2C[C@H]3[C@@H]4CCC5=CC(=O)C=C[C@]5(C)[C@@]4(F)[C@@H](O)C[C@]3(C)[C@]2(C(=O)CO)O1` [TA, triamcinolone acetonide], the “reduction in outflow facility from baseline” value with C57BL/6J mice is on record as about 46%. The “outflow facility, mean±SD” value in the assay with C57/1B6 mice (TA only eyes, two weeks of TA, n=24) is on record as 0.0067±0.0028 μl/min/mmHg; with C57/1B6 mice (contralateral eyes injected with TA alone, concurrent experiment, n=22) it was 0.0060±0.0025 μl/min/mmHg.
For `N=C(N)NCCC[C@H](N)C(=O)O` [arginine, reference compound], the “effect of arginine alone on IOP” value in assay [3] is listed as “had no effect”. In assay [4] (4.23 mg arginine intravitreal, prednisolone), the “effect of arginine alone on steroid-increased IOP” value is “does not alter”. The “effect of arginine alone on outflow facility” value in assay [4] (eye receiving arginine plus prednisolone (OS)) is “failed to reduce”.
Regarding `CC(=O)OCC(=O)[C@@]1(O)CC[C@H]2[C@@H]3CCC4=CC(=O)C=C[C@]4(C)[C@H]3[C@@H](O)C[C@@]21C` [prednisolone, prednisolone acetate, reference compound], the “MMP-13 mRNA” value in the assay on MMP-2, MMP-9, MMP-13 [1] (PA treated HTM cells) is listed as “below detectable limits”. Further, the “mean (±SD) IOP” value in assay [4] (prednisolone for 10 days, baseline 10.2 (±1.1) mmHg) was 24.1(±1.6) mmHg. In the assay with PLAT, the PLAT expression result is given as “downregulation”. The “reduction in outflow facility compared to baseline” value in the assay with HTM cells was about 73%.

The record behind these values is US20210220450A1, “TREATMENT OF AN IOP CONDITION” (The Research Foundation for The State University of New York, priority 2013, published 2021).
